≈ marks a conversion by molar mass, not a printed value.
Assays:
Human skin melanocytes = experiment: Whitening activity test: melanin production in skin melanocytes; assay type: cell-based; settings: for Melanin production inhibitory activity (%): concentration of each test sample: 0.02%
Experimental: The whitening activity test based on […] of skin melanocytes was performed as the following method: • 1. Human skin melanocytes in MGM (Melanocyte Growth Media, Clonetics) media were incubated at a 5% CO2 incubator at 37° C. • 2. A predetermined number of cells (2×10^6) were cultured in75T culture flasks. When cell confluence was identified, test samples of a predetermined concentration were loaded in the cell cultures and incubated for 2-3 days. • 3. The cultures were removed, washed with phosphate buffered saline (PBS), and treated with trypsin solution, to harvest cells. • 4. The harvested cells were centrifuged to obtain cell pellets.
The colors of the cell pellets were observed. The cell pellets were dissolved in 1N NaOH and the absorbance was measured at 475 nm. • 5. The concentration of melanin was calculated by using absorbance values obtained from melanin standard and then converted to the concentration of melanin/the total protein concentration of melanocytes. […]=[(A−B)/A]×100
A: concentration of melain/concentration of protein in control
(control: melanocytes normally grown in a culture medium containing no test samples)
B: concentration of melain/concentration of protein in each test sample
To evaluate whitening activity, inhibitory activity of the compositions of Examples 7 and Comparative Examples 6-8 against melanin production in melanocytes of healthy persons were measured and the results are summarized in Table 13 below.

tyrosinase = experiment: Tyrosinase inhibitory activity test; assay type: biochemical
Experimental: Tyrosine used as a substrate in main processes of melanin biosynthesis, mushroom tyrosinase, or tyrosinase fragments separated from melanocytes was added to test samples and incubated for a predetermined time. The absorbance of dopachrome that was a reaction product was measured at an absorption wavelength to evaluate the whitening effects of the test samples. Tyrosinase inhibitory activity (%)=100−((ODexp−ODcon)/ODstd×100)
ODexp: Absorbance of test sample containing tyrosinase
ODcon: Absorbance of test sample containing no tyrosinase
ODstd: Absorbance of standard sample containing tyrosinase

[1] = Free radical scavenging activity test (DPPH)
Experimental: When methanol solutions of test samples were converted to clear solutions due to scavenging of relatively stable deep blue-colored DPPH(1,1-diphenyl-2-hydrazyl) radicals, the degree of reduction of the absorbance of the methanol solutions was measured at 516 nm. Free radical scavenging activity (%)=100−( (ODexp−ODcon)/ODstd×100)
ODexp: Absorbance of test sample containing DPPH
ODcon: Absorbance of test sample containing no DPPH
ODstd: Absorbance of standard sample containing DPPH

Tyrosinase inhibitory activity (in words) (tyrosinase)	IC50: 50% tyrosinase activity inhibition concentration (tyrosinase)	Structure (SMILES)	Melanin production inhibitory activity (%) (Human skin melanocytes)	Inhibitory activity of melanin production (in words) (Human skin melanocytes; 0.02%)	Free radical scavenging (in words) [1]
–	–	OC[C@H]1O[C@@H](Oc2ccc(O)cc2)[C@H](O)[C@@H](O)[C@@H]1O [Albutin]	2.00%	–	–
excellent tyrosinase inhibitory activity	–	O=c1cc(CO)occ1O [Cojic acid]	22.62%	–	–
excellent tyrosinase inhibitory activity	2 µg/mL (≈ 8.76 µM)	Oc1ccc(/C=C/c2cc(O)cc(O)c2)cc1 [Resveratrol]	53.17%	excellent inhibitory activity of melanin production	–
–	–	O=C1O[C@H]([C@@H](O)CO)C(O)=C1O [Vitamin C]	19.72%	–	effective free radical scavengers
